Data: paper PMC11472320, “Computationally Driven Discovery of a BCR-ABL1 Kinase Inhibitor with Activity in Multidrug-Resistant Chronic Myeloid Leukemia” (Journal of Medicinal Chemistry, 2024)
Where “and” joins values, the source holds several entries; their conditions need not be identical. Identical values can stand only once. Like-named read-outs stand apart in the source and are kept apart here.

Tests used:
[1] = cited from earlier work
[2] = Abraham ANMR value by NMR (CDCl3 vs DMSO-d6); assay type: physicochemical
Text: Previously, intramolecular N–H–F hydrogen bonds (HBs) have been proposed as a strategy to reduce P-gp-mediated efflux and improve passive permeability, as highlighted in the discovery of the brain-penetrant EGFR inhibitor, AZD-3759 (Figure 2A).[37]−[40] […] Consistent with this work, we conducted an NMR study of the EGFR inhibitor 7a and the BCR-ABL1 inhibitor 8a in deuterated chloroform (CDCl3) and in the more polar, HB-accepting dimethyl sulfoxide (DMSO-d6). […] This finding is further supported by the lack of ^1JNH-F coupling (≤1 Hz) in 7a and 8a, as contrasted with bona fide intramolecular HBs to fluorine, which typically have ^1JNH-F coupling constants >10 Hz as exemplified by 9 with its ^1JNH-F of 19.1 Hz.[41],[43]

MDR1 (P-gp) = experiment: in vitro; details: dog, MDCK-MDR1
MDR1 = experiment: in vitro; details: dog, MDCK-MDR1
in vitro [3] = details: dog, MDCK-MDR1
[4] = Metabolic stability in hepatocytes; assay type: in vitro ADME, human; details: for hepatocyte CLint: both sexes, read-out: HEPClint (H); for hepatocyte CLint / t1/2 (H): human hepatocytes
Text: Metabolic stability in hepatocytes
Table S4. Hepatocyte details used in the hepatocyte stability assay.
Human Hepatocytes, Mixed-Gender BiolVT (Cat No. X008001)
Mouse Hepatocytes, Male-Gender BiolVT (Cat No. M005052)

Lipophilicity logD7.4 = assay type: physicochemical; details: pH 7.4
mutant BCR-ABL1 kinases = experiment: Biochemical kinase inhibition, summary statements; set-up: species or system human; details: read-out: IC50 against mutant BCR-ABL1 kinases
[5] = Plasma protein binding by equilibrium dialysis; assay type: in vitro ADME; details: human plasma; for fraction unbound / recovery / remaining at 6 h: both sexes
MDCKII-MDR1 cells = experiment: MDCKII-MDR1 permeability; details: for MDCKII-MDR1 Efflux Ratio: n = 2
Caco-2 cells = experiment: Caco-2 permeability; details: for Recovery% (BL-AP) / efflux ratio: Table S9
in vitro [6] = details: human, Caco-2
Aqueous solubility = assay type: physicochemical; details: pH 7.4
cSRC wt = cSRC wt (Homo sapiens, UniProt P12931); experiment: KinaseProfiler enzymatic radiometric kinase assay
Chain of cSRC wt (P12931 whole entry): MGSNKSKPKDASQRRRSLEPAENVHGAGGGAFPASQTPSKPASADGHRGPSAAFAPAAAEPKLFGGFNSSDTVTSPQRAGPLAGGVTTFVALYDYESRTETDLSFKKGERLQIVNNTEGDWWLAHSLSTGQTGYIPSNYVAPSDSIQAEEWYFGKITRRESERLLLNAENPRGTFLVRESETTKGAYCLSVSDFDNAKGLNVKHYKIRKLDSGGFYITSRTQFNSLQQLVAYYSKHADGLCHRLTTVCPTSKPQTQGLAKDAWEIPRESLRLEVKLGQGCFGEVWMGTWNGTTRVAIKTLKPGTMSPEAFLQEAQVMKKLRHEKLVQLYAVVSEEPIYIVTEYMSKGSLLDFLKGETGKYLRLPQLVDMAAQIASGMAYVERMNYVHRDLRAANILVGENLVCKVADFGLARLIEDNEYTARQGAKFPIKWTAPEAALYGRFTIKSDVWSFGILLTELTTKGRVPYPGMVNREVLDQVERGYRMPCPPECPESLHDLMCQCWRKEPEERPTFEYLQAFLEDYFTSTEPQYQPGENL

Ph+ CML = experiment: Activity in Ph+ CML (Figure 2B annotation); assay type: cell-based; details: annotation in Figure 2B
BCR-ABL1 wt = BCR-ABL1 wt (Homo sapiens, UniProt P00519); experiment: KinaseProfiler enzymatic radiometric kinase assay; details: read-out: Kinase IC50 BCR-ABL1 wt; [ATP] = 10 µM, n = 2
Chain of BCR-ABL1 wt (P00519 27-1130 limits assumed): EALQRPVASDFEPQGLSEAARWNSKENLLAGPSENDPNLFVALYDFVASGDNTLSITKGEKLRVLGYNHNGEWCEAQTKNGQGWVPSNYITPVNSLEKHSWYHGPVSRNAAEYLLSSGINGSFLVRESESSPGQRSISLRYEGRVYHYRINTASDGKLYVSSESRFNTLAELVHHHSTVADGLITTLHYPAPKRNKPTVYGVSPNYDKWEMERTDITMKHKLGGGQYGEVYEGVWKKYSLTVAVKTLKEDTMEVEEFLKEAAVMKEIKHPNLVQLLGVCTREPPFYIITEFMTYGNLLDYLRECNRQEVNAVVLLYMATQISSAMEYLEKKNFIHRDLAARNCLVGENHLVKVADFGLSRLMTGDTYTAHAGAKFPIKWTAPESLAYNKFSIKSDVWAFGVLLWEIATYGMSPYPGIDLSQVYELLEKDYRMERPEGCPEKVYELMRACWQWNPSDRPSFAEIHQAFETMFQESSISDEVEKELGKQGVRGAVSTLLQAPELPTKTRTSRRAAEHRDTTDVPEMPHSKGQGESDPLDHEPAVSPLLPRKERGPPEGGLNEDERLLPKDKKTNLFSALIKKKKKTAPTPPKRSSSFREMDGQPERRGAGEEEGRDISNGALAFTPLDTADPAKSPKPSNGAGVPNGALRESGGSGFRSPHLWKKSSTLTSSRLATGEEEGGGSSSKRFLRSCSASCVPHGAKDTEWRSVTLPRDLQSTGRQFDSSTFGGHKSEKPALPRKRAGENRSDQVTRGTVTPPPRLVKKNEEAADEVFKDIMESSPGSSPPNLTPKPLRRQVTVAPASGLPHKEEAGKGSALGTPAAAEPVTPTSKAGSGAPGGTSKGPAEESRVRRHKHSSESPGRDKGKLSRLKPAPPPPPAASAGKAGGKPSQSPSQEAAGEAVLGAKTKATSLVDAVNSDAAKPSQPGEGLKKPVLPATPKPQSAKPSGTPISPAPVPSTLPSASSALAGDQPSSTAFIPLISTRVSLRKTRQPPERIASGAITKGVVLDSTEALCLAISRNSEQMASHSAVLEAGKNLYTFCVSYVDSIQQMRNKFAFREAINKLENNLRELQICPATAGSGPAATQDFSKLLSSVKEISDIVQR

[7] = target: T1, hERG potassium ion channel (Homo sapiens, UniProt Q12809); experiment: hERG safety evaluation by manual patch-clamp (HEK 293); assay type: cell-based; details: mean ± SEM in Table S11
T1 construct: host or cells: HEK 293
T1 sequence (Q12809 whole entry): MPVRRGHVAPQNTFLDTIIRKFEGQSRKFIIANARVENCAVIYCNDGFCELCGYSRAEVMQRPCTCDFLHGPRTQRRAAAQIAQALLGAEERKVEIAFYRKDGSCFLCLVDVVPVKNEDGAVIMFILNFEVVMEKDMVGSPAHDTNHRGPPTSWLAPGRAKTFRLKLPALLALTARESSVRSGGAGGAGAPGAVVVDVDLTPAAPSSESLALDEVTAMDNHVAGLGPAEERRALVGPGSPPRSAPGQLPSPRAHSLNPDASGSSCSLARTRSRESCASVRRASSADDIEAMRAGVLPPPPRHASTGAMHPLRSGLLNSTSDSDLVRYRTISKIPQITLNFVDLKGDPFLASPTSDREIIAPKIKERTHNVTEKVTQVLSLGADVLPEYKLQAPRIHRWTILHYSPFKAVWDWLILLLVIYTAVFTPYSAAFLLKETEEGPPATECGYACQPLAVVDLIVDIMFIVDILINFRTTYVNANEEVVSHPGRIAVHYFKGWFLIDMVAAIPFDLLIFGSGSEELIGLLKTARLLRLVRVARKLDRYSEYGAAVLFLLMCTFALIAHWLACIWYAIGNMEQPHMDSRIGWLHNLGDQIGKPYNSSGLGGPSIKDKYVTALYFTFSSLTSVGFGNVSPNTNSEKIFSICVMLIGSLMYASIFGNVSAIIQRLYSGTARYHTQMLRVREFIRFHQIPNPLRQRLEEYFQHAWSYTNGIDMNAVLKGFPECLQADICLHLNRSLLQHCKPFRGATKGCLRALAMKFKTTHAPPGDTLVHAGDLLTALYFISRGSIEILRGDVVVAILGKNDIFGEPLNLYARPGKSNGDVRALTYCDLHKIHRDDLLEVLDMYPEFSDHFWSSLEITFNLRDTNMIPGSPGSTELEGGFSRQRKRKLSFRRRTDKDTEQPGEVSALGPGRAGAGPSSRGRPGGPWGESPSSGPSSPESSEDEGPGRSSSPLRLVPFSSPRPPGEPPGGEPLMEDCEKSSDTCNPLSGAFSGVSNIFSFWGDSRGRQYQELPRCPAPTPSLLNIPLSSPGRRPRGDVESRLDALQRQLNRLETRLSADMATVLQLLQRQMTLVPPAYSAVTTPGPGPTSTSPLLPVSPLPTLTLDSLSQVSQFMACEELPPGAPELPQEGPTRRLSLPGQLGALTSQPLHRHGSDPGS

[8] = Plasma protein binding by equilibrium dialysis; assay type: in vitro ADME; details: mouse plasma

Papp A→B (MDR1 (P-gp)) [×10⁻⁶ cm/s]	Papp B→A (MDR1 (P-gp)) [×10⁻⁶ cm/s]	Papp A→B (MDR1) [×10⁻⁶ cm/s]	efflux ratio (MDR1)	recovery (in vitro [3]) [%]	Remaining Percentages ([4]; 0.5 min) [%]	Remaining Percentages ([4]; 15 min) [%]	Remaining Percentages ([4]; 30 min) [%]	Remaining Percentages ([4]; 60 min) [%]	Remaining Percentages ([4]; 90 min) [%]	Remaining Percentages ([4]; 120 min) [%]	hepatocyte CLint [4] [µL/min/1e6 cells]	t1/2 (H) [4] [min]	logD (Lipophilicity logD7.4)	Recovery% (BL-AP) (MDCKII-MDR1 cells; Table S7) [%]	Recovery% (BL-AP) (Caco-2 cells) [%]	efflux ratio (Caco-2 cells)	Caco-2 Papp (a-b) (Caco-2 cells) [×10⁻⁶ cm/s]	Caco-2 Papp (b-a) (Caco-2 cells) [×10⁻⁶ cm/s]	Papp A→B (in vitro [6]) [×10⁻⁶ cm/s]	Compound	further results
–	–	–	–	–	–	–	–	–	–	–	–	–	–	–	–	–	–	–	–	COc1cc(Nc2c(C#N)cnc3cc(OCCON4CCN(C)CC4)c(OC)cc23)c(Cl)cc1Cl [5a]	Micronucleus [1]: Negative
0.7	19.3	0.73	26.4	79.8	100.00	69.28	52.48	29.45	15.72	9.48	40.5	34.2	3.4	64.87	72.31	6.22	1.9	12.1	1.94	COc1cc(Nc2c(C#N)cnc3cc(OCCON4CCN(C)CC4)c(OC)cc23)c(F)cc1Cl [8a, 4-((4-Chloro-2-fluoro-5-methoxyphenyl)amino)-6-methoxy-7-(2-((4-methylpiperazin-1-yl)oxy)ethoxy)quinoline-3-carbonitrile]	Abraham ANMR Value (aniline N-H) [2]: > 0.30 and 0.40; IC50 (mutant BCR-ABL1 kinases): < 1 nM; fraction unbound [5]: 0.0558; recovery [5]: 99.9%; remaining at 6 h [5]: 92.7%; %Unbound [5]: 5.58%; P-gp efflux status (MDCKII-MDR1 cells): P-gp Substrate; MDCKII-MDR1 Efflux Ratio (MDCKII-MDR1 cells): 27.6; Papp B→A (in vitro [6]): 12.1 ×10⁻⁶ cm/s; efflux ratio (in vitro [6]): 6.4; recovery (in vitro [6]): 61.2%; Aq. Sol. (Aqueous solubility): 43 µM; IC50 (cSRC wt): 2 nM; Activity in Ph+ CML (Ph+ CML): Moderate Activity; IC50 (BCR-ABL1 wt): 1 nM
7.2	29.6	7.16	4.15	71.6	100.00	82.49	66.92	45.06	29.85	18.60	27.9	49.7	3.3	85.59	80.51	7.49	3.7	27.4	3.66	COc1cc2c(Nc3cccc(Cl)c3F)c(C#N)cnc2cc1OCCON1CCN(C)CC1 [11a, 4-((3-Chloro-2-fluorophenyl)amino)-6-methoxy-7-(2-((4-methylpiperazin-1-yl)oxy)ethoxy)quinoline-3-carbonitrile]	Abraham ANMR Value (aniline N-H) [2]: 0.40; Papp B→A (MDR1): 29.6 ×10⁻⁶ cm/s; P-gp efflux status (MDCKII-MDR1 cells): Moderate P-gp Substrate; MDCKII-MDR1 Efflux Ratio (MDCKII-MDR1 cells): 4.1; Papp B→A (in vitro [6]): 27.4 ×10⁻⁶ cm/s; efflux ratio (in vitro [6]): 7.4; recovery (in vitro [6]): 60.5%; Aq. Sol. (Aqueous solubility): 14 µM; Activity in Ph+ CML (Ph+ CML): Poor Activity
12.5	39	12.5	3.1	95	100.00	87.31	80.64	60.46	46.43	35.84	17.2	80.4	2.7	91.60	87.19	3.58	6.5	23.1	6.46	COc1cc2c(Nc3cccc(OC)c3Cl)c(C#N)cnc2cc1OCCON1CCN(C)CC1 [12a, 4-((2-Chloro-3-methoxyphenyl)amino)-6-methoxy-7-(2-((4-methylpiperazin-1-yl)oxy)ethoxy)quinoline-3-carbonitrile]	IC50 [7]: 5160 nM; Papp B→A (MDR1): 39 ×10⁻⁶ cm/s; recovery ([8]; both sexes, CD-1): 92%; remaining at 6 h ([8]; both sexes, CD-1, 6 h): 96.7%; fraction unbound ([8]; both sexes, CD-1, read-out: %Bound (converted)): 0.119; %Unbound [8]: 11.93%; IC50 (mutant BCR-ABL1 kinases): ≥ 15 nM; fraction unbound [5]: 0.0737; recovery [5]: 92.5%; remaining at 6 h [5]: 97.8%; %Unbound [5]: 7.37%; enhancement in permeability in MDCKII-MDR1 cells relative to bosutinib (MDCKII-MDR1 cells): 31 fold; efflux ratio (MDCKII-MDR1 cells; Table S7): 3.22; Papp B→A (in vitro [6]): 23.1 ×10⁻⁶ cm/s; efflux ratio (in vitro [6]): 3.6; recovery (in vitro [6]): 76.2%; Aq. Sol. (Aqueous solubility): 123 µM; IC50 (cSRC wt): 14 nM; IC50 (BCR-ABL1 wt): 20 nM
